What all share (assay type): in vivo
Assay [1] relates to Spodoptera litura. The experiment in a line: Insecticidal effect for Spodoptera litura by spraying treatment to host crop (Test Example 2). The conditions noted are these: 120 h; 100 ppm; sprayed on soybean; third-instar larvae of Spodoptera litura; fifth day after; read-out: rate of dead pests (%). The gist of the method: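 Ten third-instar larvae held at 25° C. on two excised primary soybean leaves previously sprayed to dripping with 100 ppm test solution. Mortality (%) calculated from dead versus tested larvae on the fifth day.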

Assay [2] deals with Spodoptera litura. The experiment in a line: Insecticidal effect for Spodoptera litura by immersion treatment of host crop root (Test Example 4). The conditions noted are these: 120 h; 25 ppm; soybean root immersion 5 days; second-instar larvae of Spodoptera litura; fifth day after; read-out: rate of dead pests (%). A digest of the protocol:
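Soil was washed from the roots of soybean plants at the primary-leaf stage, and the roots were immersed in a pesticidal solution held in a light-shielded 100 ml Erlenmeyer flask. The solution was made from acetone containing Tween 20, diluted with ion-exchange water. Five days after root immersion, two primary leaves were cut and placed in a 180 ml cup with ten second-instar Spodoptera litura larvae, then kept at 25° C. Survivors were counted five days later. The rate of dead pests (%) was calculated as dead pests divided by test pests, times 100.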

Assay [3] relates to Plutella xylostella. The experiment in a line: Pest control effect for Plutella xylostella by plant seedling foot soil surface irrigation treatment, 30th day (Test Example 7). The conditions noted are these: 20 mg/plant; soil surface irrigation of cabbage; larvae counted on the 30th day. The method, then: Pest Control Effect for Plutella xylostella by Plant Seedling Foot Soil Surface Irrigation Treatment With Pesticidal Solution
A pesticidal solution which was prepared by dissolving 20 mg of test compound (represented by the compound Nos. in the above Examples) in 0.2 ml of acetone containing Tween 20 (trade name) and then diluting to 3 ml with ion-exchange water, was irrigated on the plant foot soil surface of 2.5-leave stage cabbage. This cabbage plant was transplanted to 1/5000a pot, and left in a facility wherein imagoes of Plutella xylostella were set free to lay eggs successively. On the 30th day after, the number of lavae on the plant was examined. The rate of pest control was calculated by the following formula. rate of pest control (%)=(1−number of pests in treated plant/number of pests in non-treated plant)×100

Assay [4] has as its system Plutella xylostella. The experiment in a line: Insecticidal effect for Plutella xylostella by immersion treatment of host crop root (Test Example 3). The conditions noted are these: Plutella xylostella, 120 h; 25 ppm; cabbage root immersed 5 days; ten second-instar larvae on stem and leaves; counted on the fifth day, 24° C.; read-out: rate of dead pests (%). The gist of the method:
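Washed roots of 4-leaf-stage cabbage immersed in 25 ppm compound solution (acetone/Tween 20 in water) for 5 days. Cut stems and leaves then fed to ten second-instar larvae at 24° C; mortality counted after a further 5 days as dead/tested ×100.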

Assay [5] concerns Plutella xylostella. The experiment in a line: Insecticidal effect for Plutella xylostella by immersion treatment of host crop (Test Example 1). The conditions noted are these: foliar, 120 h, cabbage leaf dipped, second-instar larvae of Plutella xylostella, fifth day after, read-out: rate of dead pests (%). A digest of the protocol:
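Cabbage leaf discs dipped in 100 ppm compound (acetone/Tween 20, diluted in sticker water), dried, then infested with ten second-instar larvae and kept at 24° C. Survivors counted on day 5; mortality expressed as dead/tested pests ×100.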

For assay [6], the system named is Plutella xylostella. The experiment in a line: Insecticidal effect for Plutella xylostella by seed treatment (Test Example 8). The conditions noted are these: cabbage seed treatment, leaves cut 31st day after sowing, first-instar larvae, third day after. As for the experimental part:
Insecticidal Effect for Plutella xylostella by Seed Treatment 4% aqueous solution of PVA (polyvinylalcohol) was applied to seeds of cabbage. Then the seeds were powdered with test compound (represented by the compound Nos. in the above Examples), and sowed in a Φ 6 cm in diameter Jiffy Pot (trade name). On the 31th day after sowing, the stem and leaves were cut off, and were put into an ice cream cup (180 ml). Fifteen first-instar larvae of Plutella xylostella were set free therein, and the cup was left in a temperature-controlled breeding room (24° C.). On the third day after, the number of surviving Plutella xylostella was examined. The rate of dead pests was calculated by the following formula. rate of dead pests (%)=(number of dead pests/number of test pests)×100

As to `O=C(c1c(F)cccc1F)N1COCN(c2ccc([S+]([O-])C(F)F)cc2F)C1=O` (centres unmarked) [I-42, 3-(2,6-difluorobenzoyl)-5-[4-(difluoromethylsulfinyl)-2-fluorophenyl]tetrahydro-4H-1,3,5-oxadiazin-4-one], the pest or weed control at 100 ppm in assay [1] and in assay [5] was 100% in each case. Further, the pest or weed control at 25 ppm in assay [2] and in assay [4] was 100% throughout. For the same compound, the “rate of pest control (%)” value in assay [3] turned out to be 94%.

Take `O=C(c1c(F)cccc1F)N1COCN(c2ccc(SC(F)(F)F)cc2F)C1=O` [I-44, 3-(2,6-difluorobenzoyl)-5-[2-fluoro-4-(trifluoromethylthio)phenyl]tetrahydro-4H-1,3,5-oxadiazin-4-one]: the pest or weed control at 100 ppm in assay [1] and in assay [5] was 100% each time. For the same compound, the pest or weed control at 25 ppm in assay [2] and in assay [4] was 100% throughout. In addition, the “rate of dead pests (%)” value stood at 100% in assay [6] (1 mg/seed) and 97% in assay [6] (5 mg/seed). In assay [3], the “rate of pest control (%)” value came to 96%.

For the compound `O=C(c1c(F)cccc1F)N1COCN(c2ccc([S+]([O-])C(F)(F)F)cc2F)C1=O` (centres unmarked) [I-45, 3-(2,6-difluorobenzoyl)-5-[2-fluoro-4-(trifluoromethylsulfinyl)phenyl]tetrahydro-4H-1,3,5-oxadiazin-4-one], in assay [1], the pest or weed control at 100 ppm was 100%. Besides, the pest or weed control at 25 ppm in assay [2] was 100%. In addition, the “rate of pest control (%)” value in assay [3] came to 98%.

Turning to `CN1CN(C(=O)c2c(F)cccc2F)C(=O)N(c2ccc(SC(F)(F)F)cc2F)C1` [III-160, 1-(2,6-difluorobenzoyl)-3-[2-fluoro-4-(trifluoromethylthio)phenyl]-5-methyltetrahydro-1,3,5-triazin-2(1H)-one], the pest or weed control at 100 ppm in assay [1] and in assay [5] was 100% throughout. Also, in assay [3], the “rate of pest control (%)” value was found to be 91%. Besides, in assay [4], the pest or weed control at 25 ppm worked out at 90%.

As for `CN1CN(C(=O)c2c(F)cccc2F)C(=O)N(c2ccc([S+]([O-])C(F)(F)F)cc2F)C1` (centres unmarked) [III-164, 1-(2,6-difluorobenzoyl)-3-[2-fluoro-4-(trifluoromethylsulfinyl)phenyl]-5-methyltetrahydro-1,3,5-triazin-2(1H)-one], the pest or weed control at 100 ppm in assay [1] and in assay [5] was 100% throughout. The pest or weed control at 25 ppm in assay [2] was determined as 100%. The “rate of pest control (%)” value in assay [3] amounted to 95%.

For the origin of these results see patent US20050159599A1, “Cyclic compound, process for producing the same, and pest control agent” (priority 2002, published 2005).
